# Patent publication US7179627B2, “Cyclooxygenase variants and methods of use” (Brigham Young University, priority 2001, dated 2007)
# Where two headings read alike, the source gives them in different places.
# Columns and labels:
# [1] = active breakdown product of dipyrone; cited from earlier work
# mouse COX-1 = target: T1, mouse COX-1 (Mus musculus, UniProt P22437); assay: COX activity (PGE2 formation by RIA) in insect cells expressing COX-1, drug inhibition; assay type: cell-based
# T1 construct: expressed in transfected cells; host or cells: Sf9 insect cells infected with recombinant baculovirus
# T1 sequence (P22437 27-602): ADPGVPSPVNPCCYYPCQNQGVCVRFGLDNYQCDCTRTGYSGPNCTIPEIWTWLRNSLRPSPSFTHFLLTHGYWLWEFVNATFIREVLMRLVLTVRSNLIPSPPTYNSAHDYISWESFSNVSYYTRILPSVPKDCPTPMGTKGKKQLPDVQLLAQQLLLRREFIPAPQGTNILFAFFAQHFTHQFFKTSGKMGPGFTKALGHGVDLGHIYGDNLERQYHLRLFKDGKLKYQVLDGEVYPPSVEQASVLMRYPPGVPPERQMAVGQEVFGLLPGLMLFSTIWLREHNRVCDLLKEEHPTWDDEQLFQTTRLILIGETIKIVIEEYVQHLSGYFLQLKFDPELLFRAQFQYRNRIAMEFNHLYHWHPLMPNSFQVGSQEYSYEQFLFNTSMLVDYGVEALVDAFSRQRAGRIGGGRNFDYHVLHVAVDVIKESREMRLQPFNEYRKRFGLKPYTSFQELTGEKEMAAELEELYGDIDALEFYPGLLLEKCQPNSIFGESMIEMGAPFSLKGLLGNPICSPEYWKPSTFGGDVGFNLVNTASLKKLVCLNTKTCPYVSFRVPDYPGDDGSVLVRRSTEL
# Description: (§1) Both COX-3 and PCOX-1a were cloned into the baculovirus expression vector pBlueBac 4.5/V5-His (Invitrogen). Sf9 cells (˜1×10^6) were infected with viral stocks at a multiplicity of infection (MOI) of 3 for expression of COX-3, PCOX-1a, mouse COX-1 and mouse COX-2.
# (§2) Sf9 cells were infected with a high titer viral stock at a MOI of3 and cultured for 48 hr. Infected cells expressing COX-3 were aliquoted into tubes (˜1.5×10^6 cells) and centrifuged (1000×g, 5 min). The supernatant was discarded and the cell pellet resuspended in 100 μl serum-free media containing the drug to be tested and preincubated at room temperature for 30 minutes. Arachidonic acid (100 μl, final concentration 5 or 30 μM) was then added, mixed and incubated (37° C., 10 min). Samples were then centrifuged and 100 μl of the supernatant was assayed for COX activity by RIA for PGE2. Assays were performed multiple times in triplicate. Inhibition curves were constructed and IC50 values were determined using Prism® 3.0 (GraphPad, San Diego).
# mouse COX-2 = target: T2, mouse COX-2 (Mus musculus, UniProt Q05769); assay: COX activity (PGE2 formation by RIA) in insect cells expressing COX-2, drug inhibition; assay type: cell-based
# T2 construct: expressed in transfected cells; host or cells: Sf9 insect cells infected with recombinant baculovirus
# T2 sequence (Q05769 18-604): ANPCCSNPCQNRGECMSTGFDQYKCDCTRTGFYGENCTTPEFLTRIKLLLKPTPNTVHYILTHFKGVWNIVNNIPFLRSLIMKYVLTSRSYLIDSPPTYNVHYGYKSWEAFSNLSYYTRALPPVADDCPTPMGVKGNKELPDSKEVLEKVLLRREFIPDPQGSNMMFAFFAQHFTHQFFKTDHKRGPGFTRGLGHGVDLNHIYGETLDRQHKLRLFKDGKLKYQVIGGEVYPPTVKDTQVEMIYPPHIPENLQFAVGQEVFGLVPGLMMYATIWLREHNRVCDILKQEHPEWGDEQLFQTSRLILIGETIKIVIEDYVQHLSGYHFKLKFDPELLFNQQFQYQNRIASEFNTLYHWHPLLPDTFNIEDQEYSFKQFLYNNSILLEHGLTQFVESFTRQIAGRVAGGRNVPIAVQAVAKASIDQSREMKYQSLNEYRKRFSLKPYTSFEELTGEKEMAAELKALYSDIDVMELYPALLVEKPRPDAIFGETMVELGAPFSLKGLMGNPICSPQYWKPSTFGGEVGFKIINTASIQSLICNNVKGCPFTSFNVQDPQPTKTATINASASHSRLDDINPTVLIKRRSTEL
# Description: as §1
# as §2, with “Arachidonic acid (100 μl, final concentration 5 or 30 μM) was then added, mixed and incubated (37° C., 10 min).” left out
# COX-3 [2] = target: T3, COX-3 (Canis lupus familiaris, UniProt Q8HZR1, E597Q); assay: COX activity (PGE2 formation by RIA) in insect cells expressing COX-3, drug inhibition; assay type: cell-based, canine
# T3 construct: V5-His (vector name only); expressed in transfected cells; host or cells: Sf9 insect cells infected with recombinant baculovirus (pBlueBac 4.5/V5-His)
# T3 sequence (Q8HZR1 1-633 isoform Q8HZR1-2 E627Q): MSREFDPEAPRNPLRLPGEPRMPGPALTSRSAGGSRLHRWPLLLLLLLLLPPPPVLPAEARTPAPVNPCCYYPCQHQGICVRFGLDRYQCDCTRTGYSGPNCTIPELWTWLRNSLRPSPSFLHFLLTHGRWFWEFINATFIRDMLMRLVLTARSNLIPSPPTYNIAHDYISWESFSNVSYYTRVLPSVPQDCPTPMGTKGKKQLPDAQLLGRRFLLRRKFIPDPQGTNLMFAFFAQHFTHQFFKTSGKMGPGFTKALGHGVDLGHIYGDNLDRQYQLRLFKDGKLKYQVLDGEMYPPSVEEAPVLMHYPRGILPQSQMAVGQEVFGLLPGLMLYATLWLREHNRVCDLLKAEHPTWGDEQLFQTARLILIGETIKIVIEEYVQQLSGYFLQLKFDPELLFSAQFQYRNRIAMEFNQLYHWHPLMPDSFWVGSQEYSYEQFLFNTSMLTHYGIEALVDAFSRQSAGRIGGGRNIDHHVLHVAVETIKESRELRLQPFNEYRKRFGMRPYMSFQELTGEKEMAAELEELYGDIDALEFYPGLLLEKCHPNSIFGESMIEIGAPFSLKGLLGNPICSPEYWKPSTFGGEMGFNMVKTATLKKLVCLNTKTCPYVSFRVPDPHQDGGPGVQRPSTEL
# Description: as §1
# as §2, with “Arachidonic acid (100 μl, final concentration 5 or 30 μM) was then added, mixed and incubated (37° C., 10 min).” left out
# COX-3 [3] = assay: COX activity of intact tunicamycin-treated insect cells by RIA; assay type: cell-based, canine; settings: 10 μg/ml, harvested after 48 hr
# Description: Tunicamycin was added to a final concentration of 10 μg/ml to insect cells 1 hr after infection with baculovirus constructs. The cells were cultured and harvested after 48 hr. COX activity of intact cells was determined by radioimmunoassay (RIA) (Salmon, 1978). COX activity in intact Tu-treated cells was compared with activity in untreated cells infected with the appropriate virus (MOI=3).
# [4] = 30 μM arachidonic acid, insect cells, PGE2 by RIA, read-out: IC50, μM COX-1
# [5] = 30 μM arachidonic acid, insect cells, PGE2 by RIA, read-out: IC50, μM COX-2
# [6] = substrate conditions of 30 μM arachidonic acid, read-out: IC50 value for COX-3
# [7] = 30 μM arachidonic acid, insect cells, PGE2 by RIA, read-out: IC50, μM COX-3
compound,measurement,setting,value
CNc1c(C)n(C)n(-c2ccccc2)c1=O [4-methylaminoantipyrine],concentration reached in plasma,[1],104 µM
same,concentration reached in the central nervous system,[1],86 µM
"Cc1c(N(C)C)c(=O)n(-c2ccccc2)n1C [Aminopyrine, 4-dimethylaminoantipyrine]",IC50,mouse COX-1; [4],> 1000 µM
same,IC50,mouse COX-2; [5],> 1000 µM
same,IC50,COX-3 [2]; [6],688 µM
Cc1cc(=O)n(-c2ccccc2)n1C [Antipyrine],IC50,mouse COX-1,> 1000 µM
same,IC50,mouse COX-2,> 1000 µM
same,IC50,"COX-3 [2]; IC50, μM COX-3, 30 mM arachidonic acid, insect cells, PGE2 by RIA",863 µM
same,IC50,"COX-3 [2]; IC50 value for COX-3, substrate conditions of 30 μM arachidonic acid",862 µM
CC(=O)Oc1ccccc1C(=O)O [Aspirin],IC50,COX-3 [2]; [7],3.1 µM
Cn1c(=O)c2c(ncn2C)n(C)c1=O [Caffeine],IC50,mouse COX-1; [4],> 1000 µM
same,IC50,mouse COX-2; [5],> 1000 µM
same,IC50,COX-3 [2]; [7],> 1000 µM
O=C(O)Cc1ccccc1Nc1c(Cl)cccc1Cl [Diclofenac],IC50,mouse COX-1,0.035 µM
Cc1c(N(C)CS(=O)(=O)[O-])c(=O)n(-c2ccccc2)n1C.[Na+] [Dipyrone],"concentration inhibiting COX-1, fold higher than COX-3 IC50","mouse COX-1; 30 μM arachidonic acid (FIG. 13, panel D)",6.6 fold
same,IC50,mouse COX-1; [4],350 µM
same,IC50,mouse COX-2; [5],> 1000 µM
same,inhibition of COX-2,mouse COX-2; below 1 mM,No detectable inhibition
same,IC50,COX-3 [2]; [6],52 µM
CCOc1ccc(NC(C)=O)cc1 [Phenacetin],IC50,mouse COX-1; [4],> 1000 µM
same,IC50,mouse COX-2; [5],> 1000 µM
same,IC50,COX-3 [2]; [6],102 µM
O=C1CCC(N2C(=O)c3ccccc3C2=O)C(=O)N1 (stereo not drawn) [Thalidomide],IC50,mouse COX-1; [4],> 1000 µM
same,IC50,mouse COX-2; [5],> 1000 µM
same,IC50,COX-3 [2]; [7],> 1000 µM
O=C([O-])c1ccccc1O.[Na+] [sodium salicylate],sensitivity of COX-3 to the drug compared with COX-1 or COX-2,COX-3 [2],less sensitive
tunicamycin,COX activity in cells treated with tunicamycin,COX-3 [3],significantly decreased or abolished
